Experimental data: patent publication US5457092A, “Methods of promoting bone growth in mammals comprising administration of modified parathyroid hormone” (Gesellschaft fur Biotechnologische Forschung mbH (GBF), priority 1987, dated 1995)
pEC50: −log10 of the molar value. Like-named read-outs stand apart in the source and are kept apart here.

Experiments:
[1] = system: chondrocytes from sterna of 16-day-old embryonic chicks; assay: Stimulation of DNA synthesis in chondrocytes by PTH fragments (Table 1); type: cell-based, chick; settings: for [^3 H]thymidine incorporation: 4 h, control 324 ± 18; for E/C: stimulated / non-induced control cells
Protocol: Chondrocytes were isolated from sterna of 16-day-old embryonic chicks according to J. Biol. Chem., 261 (1986) 7997-8001 (10; Yasui et al.) with some modifications. Collagenase was dissolved in Hanks' balanced salt solution (0.4 mM Na2 HPO4, 140 mN NaCl, 5.3 mM KCl, 0.4 mM MgSO4, 1.3 mM CaCl2, 0.4 mM KH2 PO4, 0.5 mM MglC2, 5 mM glucose, 0.05% gentamicin) at a concentration of 286 units/ml. Sterna were treated repeatedly for 30 min with collagenase solution at 37° C. Cells first released by this procedure were discarded because of their very poor responsiveness towards PTH. The collagenase treatment was subsequently repeated leading to a highly homogenous cell population of chondrocytes. The cells obtained by a second collagenase treatment were collected by centrifugation (1000 rpm, 10 min), washed twice with medium (Dulbecco's modified Eagle's medium, GIBCO, supplemented with NaHCO3 (45 mM), glutamine (2 mM), penicillin G/streptomycin (65 mg/1 and 100 mg/l, respectively), Hepes (10 mM, pH 7.2), and FCS (10% v/v) and counted.
The DNA synthesis rate was assayed in monolayer culture by the incorporation of ]^3 H]thymidine into perchloric acid-precipitable material. […] After 17 h, the medium was replaced by 200 μl of serum-free medium. After 4 days, chondrocytes were incubated for 4 h with the appropriate effector and 1μ Ci of [^3 H]thymidine. Subsequently, medium was removed and the cells were washed twice with 200 μl of phosphate-buffered saline (PBS: 137 mM NaCl, 2.7 mN KCl, 1.5 mM KH2 PO4, 0.8 mN Na2 HPO4, pH 7.0). Then cells were lysed by 100 μl of 2% (v/v) Nonidet P- 40 and 2% (w/v) sodium dodecyl sulfate treatment and the perchloric acid-insoluble material was precipitated by adding an equal volume of ice-cold 2% (w/v) perchloric acid in the presence of 1% herring sperm DNA as carrier. After storage for 10 min at -20° C., the precipitated material of each well was transferred to glass fiber filters with a Scatron--As semiautomatic cell harvester. Filters were dried at 80° C. for 20 min, transferred into scintillation vials, and 2 ml of scintillation mixture (scintillator 299; United Technology Pachard) were added. Radioactivity of the samples was determined with a β counter (Minimax; United Technology Pachard). Each test consisted of 5 up to 10 identically treated wells and was repeated at least twice with freshly prepared chondrocytes.
The incorporation of [^3 H]thymidine by non-induced control cells and by stimulated cells is shown by C and E, respectively. The results shown mean ±S.E. for n parallel cell cultures.

ROS 17/2.8 cells = assay: Inhibition of bPTH(1-34)-stimulated cAMP synthesis of intact ROS 17/2.8 cells; type: cell-based, rat; settings: 30 nM hPTH(28-48) added to 100 nM bPTH(1-34); 1 mM IBMX; 10 min
Protocol: FIG. 9 is a graphical representation showing the cAMP yields [nitrogenic effect of bPTH (1-34].
100 nM bPTH(1-34) were used to stimulate cAMP synthesis of intact ROS 17/2.8 cells (cell density 1.3×10^6 cells/cm^2) in the presence of 1 mM IBMX for 10 min. cAMP yields were determined by radio assay. Based on the conditions mentioned, the cAMP basal value of non-stimulated cells corresponds to 8 pmol/well. This effect of bPTH(1-34) can be inhibited by an additional doses of 30 nM hPTH(28-48) up to about 50%; cf. FIG. 9.

[2] = system: chondrocytes isolated from the sterna of 16-day-old chicken embryos; assay: Incorporation of 3H-methylthymidine into total DNA of chicken embryo chondrocytes (Examples 1-3); type: cell-based
Excerpt: FIG. 1 is a graph showing the stimulation of chondrocyte DNA synthesis by the addition of PTH and PTH fragments; expressed as the ratio of the rate of incorporation of ^3 H-methylthymidine into the total DNA of the induced cultures to that of the untreated control cultures.
FIGS. 2-6 are graphs showing the dosage/effect curves for the mitogenic activity of PTH and PTH fragments;
FIG. 1: In order to determine the incorporation of ^3 H-methylthymidine into total DNA the cells were cultivated on microtiter plates in M199 medium at a concentration of foetal calf serum (FCS) of less than 0.5% (by volume). The cell density of the chondrocytes that reacted to the addition of PTH with an increase in the incorporation of ^3 H-methylthymidine into the total DNA was from 1250 to 6000 cells/microtitre well (diameter 6 mm) at the time of plating-out. […] The incorporation of ^3 H-methylthymidine into the total DNA was determined as follows. After removing the radioactive medium, the adherent growing chondrocytes were washed with PBS and lysed in the microtitre wells. The total DNA was then precipitated under acid conditions at low temperature and transferred onto filter papers using a semi-automatic harvesting device. The rate of incorporation into total DNA could then be determined; cf. FIG. 1. […]

[3] = system: chondrocytes isolated from the sterna of 16-day-old chicken embryos; assay: Determination of cell number of chondrocyte cultures; type: cell-based; settings: induced for 24 hours; non-induced 41,000 cells/ml
Protocol: FIG. 7 is a comparative graph showing cell number after incubation of the non-induced cultures compared to cultures induced with hPTH (28-48) for 24 hours.
FIG. 1: In order to determine the incorporation of ^3 H-methylthymidine into total DNA the cells were cultivated on microtiter plates in M199 medium at a concentration of foetal calf serum (FCS) of less than 0.5% (by volume). The cell density of the chondrocytes that reacted to the addition of PTH with an increase in the incorporation of ^3 H-methylthymidine into the total DNA was from 1250 to 6000 cells/microtitre well (diameter 6 mm) at the time of plating-out. […] The incorporation of ^3 H-methylthymidine into the total DNA was determined as follows. After removing the radioactive medium, the adherent growing chondrocytes were washed with PBS and lysed in the microtitre wells. The total DNA was then precipitated under acid conditions at low temperature and transferred onto filter papers using a semi-automatic harvesting device. The rate of incorporation into total DNA could then be determined; cf. FIG. 1. […] The concentration for semi-maximum stimulation was from 9 to 15 nM for bPTH(1-84) and from 50 to 75 nM for the PTH fragments bPTH(1-34) and bPTH(3-34). In contrast, the PTH fragment hPTH(28-48), which, according to Adv. Protein Chemistry, 35 (1982) 323 ff.

renal adenylate cyclase = settings: Adv. Protein Chemistry 35 (1982) 323 ff. (Potts et al.), cited from earlier work
renal PTH receptor = settings: Adv. Protein Chemistry 35 (1982) 323 ff. (Potts et al.); cited from earlier work

Substance	[^3 H]thymidine incorporation ([1]; 6.1 × 10^-4 mol/l) [cpm]	E/C ([1]; 6.1 × 10^-4 mol/l)	[^3 H]thymidine incorporation ([1]; 6.1 × 10^-5 mol/l) [cpm]	E/C ([1]; 6.1 × 10^-5 mol/l)	[^3 H]thymidine incorporation ([1]; 6.1 × 10^-6 mol/l) [cpm]	E/C ([1]; 6.1 × 10^-6 mol/l)	[^3 H]thymidine incorporation ([1]; 6.1 × 10^-7 mol/l) [cpm]	E/C ([1]; 6.1 × 10^-7 mol/l)	[^3 H]thymidine incorporation ([1]; 6.1 × 10^-8 mol/l) [cpm]	E/C ([1]; 6.1 × 10^-8 mol/l)	inhibition of the cAMP synthesis stimulated by bPTH(1-34) (ROS 17/2.8 cells)	pEC50 ([2]; 3H-methylthymidine incorporation into total DNA, read-out: concentration for semi-maximum stimulation)	increase in the incorporation of 3H-methylthymidine into total DNA by a factor ([2]; ratio induced / untreated control cultures, depending on concentration)	total cell number [3]	stimulation of renal adenylate cyclase (renal adenylate cyclase)	stimulation of renal adenylate cyclase (renal adenylate cyclase; listed as hPTh(28-48))	binding to the renal PTH receptor (renal PTH receptor)
hPTH(25-39): PTH fragment 25-39, human source (RKKLQDVHNFVALGA; Parathyroid hormone; UniProt P01270 56-70, looked up, fragment)	542 ± 71	1.67	655 ± 147	2.02	517 ± 65	1.60	418 ± 41	1.29	452 ± 56	1.40	–	–	–	–	–	–	–
hPTH(28-48): mid-regional PTH fragment 28-48, human source (LQDVHNFVALGAPLAPRDAGS; Parathyroid hormone; UniProt P01270 59-79, looked up, fragment)	–	–	–	–	–	–	–	–	–	–	about 50%	6.46	6	63,000 cells/ml	does not stimulate renal adenylate cyclase	will not stimulate renal adenylate cyclase	does not bind to the renal PTH receptor
